Test results taken from PubChem BioAssay AID588654 (The Scripps Research Institute Molecular Screening Center, 2011).
The source made the active and inactive calls.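 How the source made its calls: active means EGF receptor protein level falling or rising by at least 30% versus DMSO-treated cells; inactive means the rest.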

Target: Epidermal growth factor receptor (Homo sapiens) (UniProt P00533)
Experiment: EGFR abundance shift in colorectal carcinoma cells – HT29 cells, chemiluminescent western blot, total EGFR, counter-screen for KLF5 inhibitor project, late-stage follow-up (AID 588654)
Conditions: 24 h, at 10 µM, stronger effect = higher value

Chain of Epidermal growth factor receptor (Homo sapiens) (P00533 whole entry, looked up): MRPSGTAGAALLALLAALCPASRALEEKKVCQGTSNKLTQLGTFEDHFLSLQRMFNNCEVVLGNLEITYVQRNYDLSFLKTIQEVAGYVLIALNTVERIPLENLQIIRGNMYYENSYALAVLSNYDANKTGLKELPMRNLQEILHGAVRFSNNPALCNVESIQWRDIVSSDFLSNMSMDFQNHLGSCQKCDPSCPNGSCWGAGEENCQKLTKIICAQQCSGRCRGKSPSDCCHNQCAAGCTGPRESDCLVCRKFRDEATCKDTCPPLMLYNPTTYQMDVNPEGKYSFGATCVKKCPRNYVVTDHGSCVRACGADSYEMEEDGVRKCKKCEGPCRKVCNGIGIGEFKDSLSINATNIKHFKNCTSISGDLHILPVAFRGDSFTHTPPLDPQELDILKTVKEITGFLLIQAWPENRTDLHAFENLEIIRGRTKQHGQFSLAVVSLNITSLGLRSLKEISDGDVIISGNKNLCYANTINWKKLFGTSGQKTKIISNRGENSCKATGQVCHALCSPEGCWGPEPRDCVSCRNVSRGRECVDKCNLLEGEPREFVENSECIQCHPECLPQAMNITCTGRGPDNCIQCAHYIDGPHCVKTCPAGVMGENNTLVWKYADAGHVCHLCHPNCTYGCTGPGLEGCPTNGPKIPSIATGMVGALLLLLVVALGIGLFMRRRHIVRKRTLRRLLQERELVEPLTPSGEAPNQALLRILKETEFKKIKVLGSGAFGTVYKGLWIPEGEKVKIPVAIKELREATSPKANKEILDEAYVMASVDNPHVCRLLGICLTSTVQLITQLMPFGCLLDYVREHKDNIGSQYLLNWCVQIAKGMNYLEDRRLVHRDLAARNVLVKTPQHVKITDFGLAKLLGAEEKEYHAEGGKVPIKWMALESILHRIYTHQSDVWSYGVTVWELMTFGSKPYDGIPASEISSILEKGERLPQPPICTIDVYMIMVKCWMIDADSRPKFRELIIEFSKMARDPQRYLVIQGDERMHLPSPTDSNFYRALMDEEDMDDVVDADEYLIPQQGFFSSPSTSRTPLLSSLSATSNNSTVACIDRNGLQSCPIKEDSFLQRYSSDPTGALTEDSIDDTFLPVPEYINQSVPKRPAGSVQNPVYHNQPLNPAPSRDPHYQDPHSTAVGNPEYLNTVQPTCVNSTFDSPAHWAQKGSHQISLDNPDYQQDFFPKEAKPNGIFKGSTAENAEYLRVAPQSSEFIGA

CN(C(=O)CNC(=O)/C=C/c1cccc(Cl)c1)C1CCS(=O)(=O)CC1
inhibition: 7.26% (inactive)

CN(C(=O)COC(=O)/C=C/c1cccc([N+](=O)[O-])c1)C1CCS(=O)(=O)C1 (stereo not drawn)
inhibition: 16.4% (inactive)

CN(C(=O)CNC(=O)/C=C/c1cccc(Cl)c1)C1CCS(=O)(=O)C1 (stereo not drawn)
inhibition: -0.393% (inactive)
